Like-named read-outs stand apart in the source and are kept apart here.
How the values were obtained:
[1] = system: cardiomyocytes derived from hiPSCs from a LQTS3 patient; assay: cells; details: Homo sapiens, Cardiomyocyte
[2] = system: normal human induced pluripotent stem cell (hiPSC) cardiomyocyte; details: for WT-Fold Prolongation: APD
[3] = system: cardiomyocytes derived from hiPSCs from a LQTS3 patient; details: for LQT-IC50 (uM)-Shortening: APD shortening
[4] = read-out: LQT-IC50 (uM)-Shortening
[5] = WT cardiomyocytes, AP prolongation
[6] = LQT-3 cardiomyocytes, AP shortening

| Compound | WT-Fold Prolongation ([2]; normal hiPSC cardiomyocytes) | Cessation of Beating ([2]; normal hiPSC cardiomyocytes) | WT-Prolongation Dose ([2]; normal hiPSC cardiomyocytes) | LQT-Cessation Dose ([3]; LQT3 cardiomyocytes) | LQT-Fold Shortening ([3]; LQT3 cardiomyocytes) | other results |
| --- | --- | --- | --- | --- | --- | --- |
| Cc1cccc(C)c1OCC(N)C1CCCCC1.Cl (stereo not shown) [Compound 73] | None | 66 µM | None | 66 µM | 1.136 | IC50 [1, 4]: 0.082 µM |
| CCc1ccccc1OCC(C)N (stereo not shown) [Compound 50, 1-(2-Ethylphenoxy)propan-2-amine] | 1.392 | None |  | None | 1.12 | IC50 [1, 4]: 6.01 µM |
| C[C@H](N)COc1ccccc1.Cl [Compound 72] | 2.93 | None |  | None |  | IC50 ([1]; read-out: LQT-IC50 (prolongation)): 129 µM; WT-EAD Dose ([2]; normal hiPSC cardiomyocytes): 133 µM; LQT-Fold (prolongation) ([3]; cell in fold shortening column marked (prolongation)): 1.133 (prolongation) |
| Cc1cccc(C)c1OCC(=NOCc1ccccc1)C1CC1 [Compound 46] | None |  | None |  | 1.67 | Cessation of Beating [2]: None; LQT-Cessation Dose [3]: None |
| CCNC(COc1cccc(C)c1C)c1ccccc1 (stereo not shown) [Compound 33, 2-(2,3-dimethylphenoxy)-N-ethyl-1-phenylethanamine] | None | 133 µM | None | 22 µM | None | LQT-Shortening Dose ([3]; LQT3 cardiomyocytes): None |
| CCCNC(C)COc1c(C)cccc1C (stereo not shown) [Compound 38, 1-(2,6-dimethylphenoxy)-N-propylpropan-2-amine] | 4.584 | 200 µM |  | 200 µM | 1.19 | WT-EAD Dose ([2]; normal hiPSC cardiomyocytes): 66 µM |
| NC(COc1cc(C(F)(F)F)cc(C(F)(F)F)c1)c1ccc2ccccc2c1 (stereo not shown) [Compound 132] |  |  |  |  |  | WT-EC50 (μM) Prolongation [2, 5]: Does Not Prolong AP; LQT-Fold Shortening ([3]; LQT-3 cardiomyocytes): 1.205; LQT-EC50 (μM) Shortening [3, 6]: Shortens; LQT-Cessation Dose (μM) ([3]; LQT-3 cardiomyocytes, cessation of beating): No cessation of beating |
| Cc1ccnc(OCC(N)c2ccccc2)c1 (stereo not shown) [Compound 95, 2-((4-methylpyridin-2-yl)oxy)-1-phenylethan-1-amine] | 2.68 | None |  | 22 µM | 1.22 | WT-EAD Dose ([2]; normal hiPSC cardiomyocytes): 133 µM |
| NC(COc1ccc(C(F)(F)F)nc1)c1ccccc1 (stereo not shown) [Compound 117] |  |  |  |  |  | WT-EC50 (μM) Prolongation [2, 5]: Does Not Prolong AP; LQT-Fold Shortening ([3]; LQT-3 cardiomyocytes): Does Not Shorten; LQT-Shortening Dose (μM) ([3]; LQT-3 cardiomyocytes): Does Not Shorten; LQT-EC50 (μM) Shortening [3, 6]: Does Not Shorten |
| 2-(2,6-dimethylphenoxy)-1-(4-methoxyphenyl)ethanamine [Compound 14] | None | None | None | None | None | LQT-IC50 (uM)-Shortening ([3]; LQT3 cardiomyocytes): None; LQT-Shortening Dose ([3]; LQT3 cardiomyocytes): None |
| NC(COc1ccccn1)c1ccccc1 (stereo not shown) [Compound 20, 1-phenyl-2-(pyridin-2-yloxy)ethanamine] | None | None | None | None | None | WT-Cessation Dose ([2]; pyridyl derivatives): No cessation of beating; WT-EC50 (μM) Prolongation ([2]; pyridyl derivatives): Does Not Prolong AP; LQT-Shortening Dose ([3]; LQT3 cardiomyocytes): None; LQT-EC50 (μM) Shortening ([3]; pyridyl derivatives): Does Not Shorten; LQT-Fold Shortening ([3]; pyridyl derivatives): Does Not Shorten; LQT-Shortening Dose ([3]; pyridyl derivatives): Does Not Shorten |
| NC(COc1cc(C(F)(F)F)ccn1)c1ccccc1 (stereo not shown) [Compound 97, 1-phenyl-2-((4-(trifluoromethyl)pyridin-2-yl)oxy)ethan-1-amine] | None | None | None | None | 1.1 | WT-EAD Dose ([2]; normal hiPSC cardiomyocytes): 133 µM |
| Cc1ccc(OCC(N)C2CC2)cc1C.Cl (stereo not shown) [Compound 77] | None | 66 µM | None | 200 µM | 1.18 |  |
| Cc1cccc(OCC(C)N)c1.Cl (stereo not shown) [Compound 86] | 1.68 | None |  | None | 1.418 | WT-EAD Dose ([2]; normal hiPSC cardiomyocytes): 66 µM; LQT-IC50 (uM)-Shortening ([3]; LQT3 cardiomyocytes): Shortens |
| COCCNC(COc1cnccc1C)c1ccccc1 (stereo not shown) [Compound 123] |  |  |  |  |  | WT-EC50 (μM) Prolongation [2, 5]: Does Not Prolong AP; LQT-Fold Shortening ([3]; LQT-3 cardiomyocytes): 1.402; LQT-EC50 (μM) Shortening [3, 6]: Shortens |
| C[C@H](N)COc1ccccc1Cl [Compound 59] | 2.832 | None |  | None | None | WT-EAD Dose ([2]; normal hiPSC cardiomyocytes): 133 µM; LQT-Shortening Dose ([3]; LQT3 cardiomyocytes): None |
| c1ccc(CON=C(COc2ccccn2)c2ccccc2)cc1 [Compound 18] | None | None | None | None | None | LQT-Shortening Dose ([3]; LQT3 cardiomyocytes): None |
| NC(COc1ccnc(C(F)(F)F)c1)c1ccccc1 (stereo not shown) [Compound 128] |  |  |  |  |  | WT-EC50 (μM) Prolongation [2, 5]: Does Not Prolong AP; WT-Cessation Dose (μM) ([2]; WT cardiomyocytes, cessation of beating): No cessation of beating; LQT-Fold Shortening ([3]; LQT-3 cardiomyocytes): 1.226; LQT-EC50 (μM) Shortening [3, 6]: Shortens |
| OCCNC(COc1cc(C(F)(F)F)cc(C(F)(F)F)c1)c1ccccc1 (stereo not shown) [Compound 93] | None | 66 µM | None | 22 µM | 1.5 |  |
| NC(COc1cncc(C(F)(F)F)c1)c1ccccc1 (stereo not shown) [Compound 116] |  |  |  |  |  | WT-EC50 (μM) Prolongation [2, 5]: Does Not Prolong AP; LQT-Fold Shortening ([3]; LQT-3 cardiomyocytes): 1.422; LQT-EC50 (μM) Shortening [3, 6]: Shortens |
| COc1ccc(C(N)COc2c(C)cccc2C)cc1 (stereo not shown) [Compound 15, 2-(2,6-dimethylphenoxy)-1-(4-methoxyphenyl)ethanamine] | None | 66 µM | None | 66 µM | 1.42 |  |
| Cc1cccc(C)c1OCC(C)O (stereo not shown) [Compound 37] | None | None | None | None | None | LQT-Shortening Dose ([3]; LQT3 cardiomyocytes): None |
| Cc1cc(C)cc(OCC(NCCN2CCOCC2)c2ccccc2)c1 (stereo not shown) [Compound 98] | 1.54 |  |  | 66 µM | 1.3 |  |
| CC(COC1CCCCC1)=NOCc1ccccc1 [Compound 45] | None | None | None | None | 1.37 |  |
| CCCNC(COc1cccc(C)c1C)c1ccccc1 (stereo not shown) [Compound 31, 2-(2,3-dimethylphenoxy)-N-propyl-1-phenylethanamine] | None | None | None | 133 µM | None | LQT-Shortening Dose ([3]; LQT3 cardiomyocytes): None |
| Cc1ccc(C(N)COc2c(C)cccc2C)cc1 (stereo not shown) [Compound 17, 2-(2,6-dimethylphenoxy)-1-p-tolylethanamine] | None | 66 µM | None | 66 µM | 1.58 |  |
| Cc1cccc(C)c1OCC(C)NCc1ccccc1 (stereo not shown) [Compound 42, 1-(2,6-dimethylphenoxy)-N-benzylpropan-2-amine] | 1.684 |  |  |  | 1.26 | Cessation of Beating ([2]; human, 5 min): 200 µM; LQT-Cessation Dose ([3]; human, 5 min): 133 µM |
